Data: article PMC12392461, “Beyond Estrogenicity: A Comparative Assessment of Bisphenol A and Its Alternatives in In Vitro Assays Questions Safety of Replacements” (Environmental Science & Technology, 2025)
“Also recorded” adds a separate entry of the source. Like-named read-outs stand apart in the source and are kept apart here.

Columns and labels:
[1] = Stability in PBS (pH 7.4, 37 °C, 48 h)
Method: We tested the stability of all BPA alternatives and BPA in 0.1mM PBS (pH 7.4) for 48h at 37° C except for TMCD prior to the bioassay experiments. The experiment was performed as follows: 500 µL of a 2 mg/L solution of the chemical in PBS was aliquoted into 3 HPLC vials (n=3) and incubated for 48 h at 37 °C. The 2 mg/L solution was prepared by diluting the respective 10 g/L stock solution in a 10 mL glass crimp vial with an aluminum cap. For HPLC analysis, 500 µL acetonitrile was added prior to injection.
We have not tested stability of TMCD in aqueous media because we lacked a suitable […]
Figure S2: Detection of Bisphenol alternatives after 48 h incubation in 0.1mM PBS pH 7.4. Each data point represents the mean percentage with error bars indicating standard error of mean (SEM) of n=3 replicates.
S2: Cell culture and bioassays
S2.1: Cell Culturing Conditions
All suppliers and sources are given in detail in SI-Excel S3. The bioassay media for the different assays were prepared as follows: Assay medium for ER alpha-UAS-bla GripTite (ERα) and PPAR gamma-UAS-bla 293H (PPARγ) was prepared with 98% Opti-MEM, supplemented with 2% charcoal-stripped FBS, and 100 U/mL penicillin-streptomycin. MitoOxTox and AhR assay medium was comprised of 90% DMEM with GlutaMAX, supplemented with 10% FBS, and 100 U/mL penicillin-streptomycin. Neurotoxicity assay medium consisted of the neurobasal […]

[2] = set-up: method as in Soto et al.; conditions: ref Soto et al.; cited from earlier work
MCF-7 cells = system: MCF-7 cells; set-up: method as in Singh et al. 2024; conditions: ref Singh et al. 2024; cited from earlier work
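For REPBPA in this document: published Tox21 results reanalysed with a revised model predicting baseline toxicity.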
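For SRbaseline in this document: published Tox21 results reanalysed with a revised model predicting baseline toxicity.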

Excerpt for Tox21 assays: We also reanalyzed the Tox21 data of Adamovsky et al. with the updated baseline toxicity prediction model (Table S2).

CC(C)(c1ccc(OCC2CO2)cc1)c1ccc(OCC2CO2)cc1 (centres unmarked) [BADGE, Bisphenol A diglycidyl ether]
stability in phosphate-buffered saline [1]: unstable in aqueous solution; also recorded: lower parent concentration and potential contributions from hydrolysis products

CC(C)(c1cc(Br)c(O)c(Br)c1)c1cc(Br)c(O)c(Br)c1 [TBBPA, 3,3',5,5'-Tetrabromobisphenol A]
REPBPA (Tox21 assays): 29.73 | SRbaseline (Tox21 assays): 90.68 | REPBPA (Tox21 assays; ATG_PPARg_TRANS_up, Relative Effect Potency): 3.44 | SRbaseline (Tox21 assays; ATG_PPARg_TRANS_up, Specificity Ratio): 12.11 | REPBPA (Tox21 assays; ATG_hPPARg_XSP1_up, Relative Effect Potency): 2.58 | SRbaseline (Tox21 assays; ATG_hPPARg_XSP1_up, Specificity Ratio): 11.21 | REPBPA (Tox21 assays; ATG_hPPARg_XSP2_up, Relative Effect Potency): 6.45 | SRbaseline (Tox21 assays; ATG_hPPARg_XSP2_up, Specificity Ratio): 28.04

Cc1cc(Cc2cc(C)c(O)c(C)c2)cc(C)c1O [TMBPF, Bis(3,5-dimethyl-4-hydroxyphenyl)methane]
estrogenicity in vivo [2]: nonestrogenic in vivo | estrogenicity in MCF-7 cells (MCF-7 cells): inactive in estrogenicity assays using MCF-7 cells
